In patent US10676477B2, “Factor XIa macrocycle inhibitors bearing a non-aromatic P2' group” (BRISTOL-MYERS SQUIBB COMPANY, priority 2015, dated 2020) one finds Ki data, which are given here for 16 molecules.

Structures can show the parent of a compound that is named as a salt.

For one experiment, the target named is T1, human plasma kallikrein (Homo sapiens, UniProt P03952).
T1 construct: purchased Enzyme Research Laboratories
The experiment in a line: Plasma kallikrein enzyme inhibition assay (chromogenic substrate S-2302), Ki. The conditions noted are these: purified human plasma kallikrein, substrate S-2302, pH 7.5. In kind it is biochemical. As to the method:
(§1) The effectiveness of compounds of the present invention as inhibitors of the coagulation Factors XIa, VIIa, IXa, Xa, XIIa, plasma kallikrein chymotrypsin, trypsin, or thrombin, can be determined using a relevant purified serine protease, respectively, and an appropriate synthetic substrate. The rate of hydrolysis of the chromogenic or fluorogenic substrate by the relevant serine protease was measured both in the absence and presence of compounds of the present invention. […] A decrease in the rate of absorbance or fluorescence change in the presence of inhibitor is indicative of enzyme inhibition. Such methods are known to one skilled in the art. The results of this assay are expressed as the inhibitory constant, Ki.
Plasma kallikrein determinations were made in 0.1 M sodium phosphate buffer at a pH of 7.5 containing 0.1-0.2 M sodium chloride and 0.5% PEG 8000. Determinations were made using purified human plasma kallikrein (Enzyme Research Laboratories) at a final assay concentration of 200 pM and the synthetic substrate S-2302 (H-(D)-Pro-Phe-Arg-pNA; CHROMOGENIX®) at a concentration of 0.00008-0.0004 M.
(§2) The Michaelis constant, Km, for substrate hydrolysis by each protease, was determined at 25° C. or 37° C. in the absence of inhibitor. Values of Ki were determined by allowing the protease to react with the substrate in the presence of the inhibitor. Reactions were allowed to go for periods of 20-180 minutes (depending on the protease) and the velocities (rate of absorbance or fluorescence change versus time) were measured. The following relationships were used to calculate Ki values: (Vmax*S)/(Km+S) (vo−vs)/vs=I/(Ki*(1+S/Km)) for a competitive inhibitor with one binding site; or vs/vo=A+((B−A)/(1+(IC50/(I)^n)); and Ki=IC50/(1+S/Km) for a competitive inhibitor where: […]

For the next experiment, the target named is T2, human Factor XIa (Homo sapiens, UniProt P03951).
T2 construct: purchased Haematologic Technologies
T2 sequence (P03951 388-625 limits assumed): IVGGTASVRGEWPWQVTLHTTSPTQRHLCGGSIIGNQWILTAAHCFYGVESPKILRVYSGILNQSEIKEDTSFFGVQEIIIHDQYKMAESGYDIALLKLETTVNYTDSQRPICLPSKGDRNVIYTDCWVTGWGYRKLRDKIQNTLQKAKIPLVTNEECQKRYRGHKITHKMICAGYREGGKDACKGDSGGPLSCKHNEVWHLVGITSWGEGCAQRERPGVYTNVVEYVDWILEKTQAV
T2 sequence (P03951 19-387 partner limits assumed): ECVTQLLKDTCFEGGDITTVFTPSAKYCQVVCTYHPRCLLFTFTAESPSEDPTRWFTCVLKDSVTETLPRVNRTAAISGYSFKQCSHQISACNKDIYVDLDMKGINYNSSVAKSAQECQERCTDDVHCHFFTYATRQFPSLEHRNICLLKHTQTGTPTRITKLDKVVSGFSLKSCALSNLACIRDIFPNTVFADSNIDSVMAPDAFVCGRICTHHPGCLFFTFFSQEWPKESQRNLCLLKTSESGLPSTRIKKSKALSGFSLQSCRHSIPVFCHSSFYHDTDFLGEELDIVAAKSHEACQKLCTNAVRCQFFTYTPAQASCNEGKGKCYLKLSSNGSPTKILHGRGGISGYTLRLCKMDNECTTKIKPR
Briefly: Factor XIa enzyme inhibition assay (chromogenic substrate S-2366), Ki. The class given is biochemical. The conditions noted are these: purified human Factor XIa, substrate S-2366, pH 7.4. Here is the method: as §1
Factor XIa determinations were made in 50 mM HEPES buffer at pH 7.4 containing 145 mM NaCl, 5 mM KCl, and 0.1% PEG 8000 (polyethylene glycol; JT Baker or Fisher Scientific). Determinations were made using purified human Factor XIa at a final concentration of 25-200 pM (Haematologic Technologies) and the synthetic substrate S-2366 (pyroGlu-Pro-Arg-pNA; CHROMOGENIX® or AnaSpec) at a concentration of 0.0002-0.001 M.
as §2

T1 sequence (P03952 391-638 limits assumed): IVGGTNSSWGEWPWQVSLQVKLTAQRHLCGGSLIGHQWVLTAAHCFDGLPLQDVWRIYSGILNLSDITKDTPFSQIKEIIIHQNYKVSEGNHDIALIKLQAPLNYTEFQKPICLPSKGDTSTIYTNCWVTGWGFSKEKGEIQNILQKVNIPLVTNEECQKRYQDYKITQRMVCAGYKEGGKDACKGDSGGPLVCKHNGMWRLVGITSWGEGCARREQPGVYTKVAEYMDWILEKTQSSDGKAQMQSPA
T1 sequence (P03952 20-390 partner limits assumed): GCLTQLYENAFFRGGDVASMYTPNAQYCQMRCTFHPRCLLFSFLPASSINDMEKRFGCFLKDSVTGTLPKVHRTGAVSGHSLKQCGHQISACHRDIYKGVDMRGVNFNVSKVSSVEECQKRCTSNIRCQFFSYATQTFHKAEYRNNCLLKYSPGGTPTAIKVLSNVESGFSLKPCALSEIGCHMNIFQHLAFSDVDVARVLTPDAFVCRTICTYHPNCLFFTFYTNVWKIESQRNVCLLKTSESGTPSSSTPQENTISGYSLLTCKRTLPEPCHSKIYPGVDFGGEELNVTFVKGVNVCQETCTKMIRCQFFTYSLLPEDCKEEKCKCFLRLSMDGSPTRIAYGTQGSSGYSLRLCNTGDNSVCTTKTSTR

As a reminder, the Ki is a measure of affinity in units of concentration, obtained from inhibition or displacement. A low value points to higher affinity. Regarding `O=C1NCCCCC[C@H](n2cnc(-c3cc(Cl)ccc3-n3cc(Cl)nn3)cc2=O)c2cccc(c2)N2CCNC[C@H]12` [Example 9, (7R,15S)-15-{4-[5-chloro-2-(4-chloro-1H-1,2,3-triazol-1-yl)phenyl]-6-oxo-1,6-dihydropyrimidin-1-yl}-2,5,9-triazatricyclo[14.3.1.0^2,7]icosa-1(20),16,18-trien-8-one hydrochloride], the results for the Ki on human plasma kallikrein and on human Factor XIa were 1.82 µM and 0.011 µM, respectively.

Consider `Cc1c(C(=O)N[C@H]2CCCCCNC(=O)[C@H]3CN(C(=O)OC(C)(C)C)CCN3c3cccc2c3)cnn1-c1cccc(Cl)c1F` [Example 18, tert-butyl (7R,15S)-15-[1-(3-chloro-2-fluorophenyl)-5-methyl-1H-pyrazole-4-amido]-8-oxo-2,5,9-triazatricyclo[14.3.1.0^2,7]icosa-1(20),16,18-triene-5-carboxylate, trifluoromethylacetate], for which the Ki at human plasma kallikrein was 3.83 µM; at human Factor XIa, 3.31 µM.

For the molecule `COC(=O)N1CCN2c3cccc(c3)[C@@H](n3cnc(-c4cc(Cl)ccc4-n4cc(Cl)nn4)cc3=O)CCCCCNC(=O)[C@@H]2C1` [Example 3, methyl (7S,15S)-15-{4-[5-chloro-2-(4-chloro-1H-1,2,3-triazol-1-yl)phenyl]-6-oxo-1,6-dihydropyrimidin-1-yl}-8-oxo-2,5,9-triazatricyclo[14.3.1.0^2,7]icosa-1(20),16,18-triene-5-carboxylate], the Ki at human plasma kallikrein came to 4.11 µM; on human Factor XIa it was 0.643 µM.

As to `CC(C)(C)OC(=O)NCC[C@H]1Nc2cccc(c2)[C@@H](n2cnc(-c3cc(Cl)ccc3-n3cc(Cl)nn3)cc2=O)CCCCCNC1=O` [Example 26, tert-butyl N-{2-[(3R,11S)-11-{4-[5-chloro-2-(4-chloro-1H-1,2,3-triazol-1-yl)phenyl]-6-oxo-1,6-dihydropyrimidin-1-yl}-4-oxo-2,5-diazabicyclo[10.3.1]hexadeca-1(16),12,14-trien-3-yl]ethyl}carbamate trifluoromethylacetate], the Ki on human plasma kallikrein worked out at 0.43 µM; at human Factor XIa, 0.024 µM.

As for `O=C1NCCCCC[C@H](n2cnc(-c3cc(Cl)ccc3-n3cc(Cl)nn3)cc2=O)c2cccc(c2)N2C(=O)CNC[C@@H]12` [Example 6, (7S,15S)-15-{4-[5-chloro-2-(4-chloro-1H-1,2,3-triazol-1-yl)phenyl]-6-oxo-1,6-dihydropyrimidin-1-yl}-2,5,9-triazatricyclo[14.3.1.0^2,7]icosa-1(20),16,18-triene-3,8-dione hydrochloride], the Ki on human plasma kallikrein was 13 µM; on human Factor XIa, 6 µM.

`CN1CCN2c3cccc(c3)[C@@H](n3cnc(-c4cc(Cl)ccc4-n4cc(Cl)nn4)cc3=O)CCCCCNC(=O)[C@H]2C1` [Example 13, (7R,15S)-15-{4-[5-chloro-2-(4-chloro-1H-1,2,3-triazol-1-yl)phenyl]-6-oxo-1,6-dihydropyrimidin-1-yl}-5-methyl-2,5,9-triazatricyclo[14.3.1.0^2,7]icosa-1(20),16,18-trien-8-one, trifluoromethyl acetate]: the Ki amounted to 0.441 µM on human plasma kallikrein and 0.01 µM on human Factor XIa.

On to `COC(=O)N1CCN2c3cccc(c3)[C@@H](NC(=O)c3cnn(-c4cccc(Cl)c4F)c3C)CCCCCNC(=O)[C@H]2C1` [Example 21, methyl (7R,15S)-15-[1-(3-chloro-2-fluorophenyl)-5-methyl-1H-pyrazole-4-amido]-8-oxo-2,5,9-triazatricyclo[14.3.1.0^2,7]icosa-1(20),16,18-triene-5-carboxylate, trifluoromethyl acetate], for which the Ki at human plasma kallikrein was found to be 9.17 µM; at human Factor XIa it was 1.06 µM.

For the molecule `O=C1NCCCCC[C@H](n2cnc(-c3cc(Cl)ccc3-n3cc(Cl)nn3)cc2=O)c2cccc(c2)N2CCN(C3COC3)C[C@H]12` [Example 16, (7R,15S)-15-{4-[5-chloro-2-(4-chloro-1H-1,2,3-triazol-1-yl)phenyl]-6-oxo-1,6-dihydropyrimidin-1-yl}-5-(oxetan-3-yl)-2,5,9-triazatricyclo[14.3.1.0^2,7]icosa-1(20),16,18-trien-8-one trifluoromethylacetate], the inhibition constant Ki at human plasma kallikrein came out at 0.528 µM; on human Factor XIa, 0.013 µM.

As to `CC(C)(C)OC(=O)N1CC(=O)N2c3cccc(c3)[C@@H](n3cnc(-c4cc(Cl)ccc4-n4cc(Cl)nn4)cc3=O)CCCCCNC(=O)[C@H]2C1` [Example 5, tert-butyl (7R,15S)-15-{4-[5-chloro-2-(4-chloro-1H-1,2,3-triazol-1-yl)phenyl]-6-oxo-1,6-dihydropyrimidin-1-yl}-3,8-dioxo-2,5,9-triazatricyclo[14.3.1.0^2,7]icosa-1(20),16,18-triene-5-carboxylate], the Ki on human plasma kallikrein is 6 µM; at human Factor XIa, 0.276 µM.

Regarding `O=C1NCCCCC[C@H](n2cnc(-c3cc(Cl)ccc3-n3cc(Cl)nn3)cc2=O)c2cccc(c2)N2CCNC[C@@H]12` [Example 2, (7S,15S)-15-{4-[5-chloro-2-(4-chloro-1H-1,2,3-triazol-1-yl)phenyl]-6-oxo-1,6-dihydropyrimidin-1-yl}-2,5,9-triazatricyclo[14.3.1.0^2,7]icosa-1(20),16,18-trien-8-one hydrochloride], the Ki came out at 7.29 µM on human plasma kallikrein and 0.542 µM at human Factor XIa.

In the case of `CC(C)(C)OC(=O)N1CCN2c3cccc(c3)[C@@H](n3cnc(-c4cc(Cl)ccc4-n4cc(Cl)nn4)cc3=O)CCCCCNC(=O)[C@@H]2C1` [Example 1, tert-butyl (7S,15S)-15-{4-[5-chloro-2-(4-chloro-1H-1,2,3-triazol-1-yl)phenyl]-6-oxo-1,6-dihydropyrimidin-1-yl}-8-oxo-2,5,9-triazatricyclo[14.3.1.0^2,7]icosa-1(20),16,18-triene-5-carboxylate], the Ki was determined as 3.47 µM on human plasma kallikrein and 0.955 µM on human Factor XIa.

In the case of `COC(=O)NCC[C@@H]1Nc2cccc(c2)[C@@H](NC(=O)c2cnn(-c3cccc(Cl)c3F)c2Cl)CCCCCNC1=O` [Example 31, methyl N-{2-[(3S,11S)-11-[5-chloro-1-(3-chloro-2-fluorophenyl)-1H-pyrazole-4-amido]-4-oxo-2,5-diazabicyclo[10.3.1]hexadeca-1(16),12,14-trien-3-yl]ethyl}carbamate, trifluoromethylacetate], the Ki at human plasma kallikrein came out at 9.49 µM; on human Factor XIa, 1.83 µM.

Turning to `Cc1c(C(=O)N[C@H]2CCCCCNC(=O)[C@H]3CNCCN3c3cccc2c3)cnn1-c1cccc(Cl)c1F` [Example 20, 1-(3-chloro-2-fluorophenyl)-5-methyl-N-[(7R,15S)-8-oxo-2,5,9-triazatricyclo[14.3.1.0^2,7]icosa-1(20),16,18-trien-15-yl]-1H-pyrazole-4-carboxamide hydrochloride], the figures for the Ki on human plasma kallikrein and at human Factor XIa were 2.55 µM and 1.31 µM, respectively.

For the molecule `O=C(NCC[C@H]1Nc2cccc(c2)[C@@H](n2cnc(-c3cc(Cl)ccc3-n3cc(Cl)nn3)cc2=O)CCCCCNC1=O)c1ccn(C(F)F)n1` [Example 29, N-{2-[(3R,11S)-11-{4-[5-chloro-2-(4-chloro-1H-1,2,3-triazol-1-yl)phenyl]-6-oxo-1,6-dihydropyrimidin-1-yl}-4-oxo-2,5-diazabicyclo[10.3.1]hexadeca-1(16),12,14-trien-3-yl]ethyl}-1-(difluoromethyl)-1H-pyrazole-3-carboxamide trifluoromethyl acetate], the Ki at human plasma kallikrein turned out to be 0.049 µM; at human Factor XIa it was 0.005 µM.

On to `COC(=O)NCC[C@H]1Nc2cccc(c2)[C@@H](n2cnc(-c3cc(Cl)ccc3-n3cc(Cl)nn3)cc2=O)CCCCCNC1=O` [Example 28, methyl N-{2-[(3R,11S)-11-{4-[5-chloro-2-(4-chloro-1H-1,2,3-triazol-1-yl)phenyl]-6-oxo-1,6-dihydropyrimidin-1-yl}-4-oxo-2,5-diazabicyclo[10.3.1]hexadeca-1(16),12,14-trien-3-yl]ethyl}carbamate trifluoromethyl acetate], for which the Ki on human plasma kallikrein worked out at 0.083 µM; on human Factor XIa it was 0.005 µM.

For the molecule `COC(=O)N1CCN2c3cccc(c3)[C@@H](n3cnc(-c4cc(Cl)ccc4-n4cc(Cl)nn4)cc3=O)CCCCCNC(=O)[C@H]2C1` [Example 10, methyl (7R,15S)-15-{4-[5-chloro-2-(4-chloro-1H-1,2,3-triazol-1-yl)phenyl]-6-oxo-1,6-dihydropyrimidin-1-yl}-8-oxo-2,5,9-triazatricyclo[14.3.1.0^2,7]icosa-1(20),16,18-triene-5-carboxylate], the Ki at human plasma kallikrein was 0.862 µM; at human Factor XIa it was 0.005 µM.
